Experimental data from patent publication US20050084528A1, “Anti-platelet aggregation compositions” (priority 2003, published 2005).
Like-named read-outs stand apart in the source and are kept apart here.

Legend:
[1] = system: platelet aggregation induced by A23187; assay: Ex vivo platelet aggregation in platelet rich plasma of volunteers after a single oral dose, induced by calcium ionophore A23187 (2.5 μM); set-up: species or system human; details: for % Inhibition A23187: aspirin 10 mg single oral dose, blood 24 hours after ingestion vs pre-dose, PRP, A23187 2.5 μM; for inhibition of platelet aggregation induced by A23187 (in words): single oral dose, 24 hours
Description: (§1) The PRP samples were treated in vitro with calcium ionophore (A23187, 2.5 μM) or arachidonic acid (AA, 1.6 mM) to induce maximal aggregation. Platelet aggregation was monitored using a Dual-channel Lumi-aggregometer (Model 400, Chronolog Corporation, USA) using 0.45 ml samples of PRP. The resulting aggregation was recorded for all of the samples and a comparison was made between the pre- and post-test drug ingestion aggregation levels. The data was analysed using the Student's t-test and differences were considered significant when probability (p) was <0.05.

[2] = system: platelet aggregation induced by AA; assay: Ex vivo platelet aggregation in platelet rich plasma of volunteers after a single oral dose, induced by arachidonic acid (1.6 mM); set-up: species or system human; details: for inhibition of platelet aggregation induced by AA (in words): single oral dose, 24 hours
Description: as §1

[3] = system: platelet aggregation induced by PAF; details: Saeed et al. 1998; cited from earlier work
[4] = system: platelet aggregation induced by AA; details: Saeed et al. 1998; cited from earlier work
[5] = system: platelet aggregation induced by adrenaline; details: Saeed et al. 1998; cited from earlier work
[6] = aspirin at a dose of 20 mg or 40 mg
[7] = nimesulide at doses of 25 or 50 mg

In the case of `CC(=O)Oc1ccccc1C(=O)O` [Aspirin, 2-acetoxybenzoic acid], the “% Inhibition A23187” value [1] is reported as 27%, the “% Inhibition A23187” value ([1]; listed as aspirin) is reported as “about 25%” and the “inhibition of platelet aggregation induced by A23187 (in words)” value [1, 6] is reported as “effectively inhibited”. The “% Inhibition AA” value ([2]; aspirin 10 mg single oral dose, blood 24 hours after ingestion vs pre-dose, PRP, AA 1.6 mM) was 4%, the “inhibition of platelet aggregation induced by AA (in words)” value (shortened to “inhibition … by AA (in words)”) ([2]; aspirin 10 mg) was “ineffective” and the “inhibition … by AA (in words)” value [2, 6] was “effectively inhibited”. For the same molecule, the “inhibition of platelet aggregation induced by PAF (in words)” value [3] was “inhibit” and the “inhibition … by AA (in words)” value [4] was “inhibit”.
In the case of `CS(=O)(=O)Nc1ccc([N+](=O)[O-])cc1Oc1ccccc1` [Nimesulide, N-(4-nitro-2-phenoxyphenyl)methanesulfonamide], the “inhibition of platelet aggregation induced by A23187 (in words)” value [1, 7] is given as “effectively inhibited”, the “inhibition … by AA (in words)” value [2, 7] is given as “effectively inhibited” and the “inhibition of platelet aggregation induced by PAF (in words)” value [3] is given as “inhibit”. The “inhibition of platelet aggregation induced by adrenaline (in words)” value [5] was “inhibits” and the “inhibition … by AA (in words)” value [4] was “inhibit”.
